Measurements from patent US20230374015A1, “INHIBITORS OF FIBROBLAST GROWTH FACTOR RECEPTOR KINASES” (Kinnate Biopharma Inc., priority 2020, published 2023).
pIC50: −log10 of the molar value.

What follows are compounds tested against FGFR2 (Homo sapiens, UniProt P21802) (assay: FGFR2 Kinase Protocol - Condition 2 (Reaction Biology HotSpot radiometric kinase assay, no preincubation)). Details: poly[Glu:Tyr] (4:1) 0.2 mg/ml, ATP 100 microM, 2 hr room temperature.
Format: biochemical
Procedure, shortened: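 Ten-point, 3-fold compound dilutions were tested against wildtype or V564F FGFR2 with 100 µM ATP (33P-labelled), no preincubation, and 0.2 mg/ml poly[Glu:Tyr] (4:1) substrate. After 2 hr at room temperature, incorporation was read on P81 filter paper; IC50 fitted from activity remaining relative to vehicle.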

FGFR2, sequence (P21802 22-821): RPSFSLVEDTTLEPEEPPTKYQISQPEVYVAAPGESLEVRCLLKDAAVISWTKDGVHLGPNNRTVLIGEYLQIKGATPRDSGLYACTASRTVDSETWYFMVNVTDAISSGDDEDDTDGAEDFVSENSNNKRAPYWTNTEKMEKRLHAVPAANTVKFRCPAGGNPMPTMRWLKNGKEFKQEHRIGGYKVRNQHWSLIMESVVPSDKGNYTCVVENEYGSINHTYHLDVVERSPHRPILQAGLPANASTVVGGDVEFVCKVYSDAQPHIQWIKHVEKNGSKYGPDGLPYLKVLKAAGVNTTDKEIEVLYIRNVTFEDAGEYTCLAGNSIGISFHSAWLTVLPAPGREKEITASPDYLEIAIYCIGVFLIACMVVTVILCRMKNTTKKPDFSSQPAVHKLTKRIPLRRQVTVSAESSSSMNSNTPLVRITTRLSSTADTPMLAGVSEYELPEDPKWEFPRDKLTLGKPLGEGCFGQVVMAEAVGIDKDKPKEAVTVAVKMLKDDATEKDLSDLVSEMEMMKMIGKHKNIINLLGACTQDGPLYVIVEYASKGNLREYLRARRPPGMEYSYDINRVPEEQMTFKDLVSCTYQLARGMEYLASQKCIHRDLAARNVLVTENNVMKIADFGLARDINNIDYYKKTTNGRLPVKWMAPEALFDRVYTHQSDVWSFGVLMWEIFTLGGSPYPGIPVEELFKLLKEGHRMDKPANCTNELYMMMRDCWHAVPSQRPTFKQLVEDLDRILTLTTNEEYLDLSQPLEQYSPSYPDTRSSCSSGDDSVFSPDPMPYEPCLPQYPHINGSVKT

SMILES	pIC50
C=CC(=O)N1C[C@@H](n2nc(C#Cc3cc4nc(C)n(C)c4c(F)c3Cl)c3c(N)ncnc32)C[C@@H]1COC [Example 125, 1-[(2R,4S)-4-[4-Amino-3-[2-(6-chloro-7-fluoro-1,2-dimethyl-1,3-benzodiazol-5-yl)ethynyl]pyrazolo[3,4-d]pyrimidin-1-yl]-2-(methoxymethyl)pyrrolidin-1-yl]prop-2-en-1-one]	≥ 7.00
C=CC(=O)N1C[C@@H](n2nc(C#Cc3c(F)cc4c(ncn4C(F)F)c3F)c3c(N)ncnc32)C[C@@H]1COC [Example 64, 1-[(2R,4S)-4-(4-Amino-3-[2-[1-(difluoromethyl)-4,6-difluoro-1,3-benzodiazol-5-yl]ethynyl]pyrazolo[3,4-d]pyrimidin-1-yl)-2-(methoxymethyl)pyrrolidin-1-yl]prop-2-en-1-one]	≥ 7.00
C=CC(=O)N1C[C@@H](n2nc(C#Cc3cc4ncn(CC)c4cc3F)c3c(N)nccc32)C[C@@H]1COC [Example 79, 1-[(2R,4S)-4-[4-Amino-3-[2-(1-ethyl-6-fluoro-1,3-benzodiazol-5-yl)ethynyl]pyrazolo[4,3-c]pyridin-1-yl]-2-(methoxymethyl)pyrrolidin-1-yl]prop-2-en-1-one]	≥ 7.00
C=CC(=O)N1C[C@@H](n2nc(C#Cc3ccc4c(cnn4CC)c3)c3c(N)ncnc32)C[C@@H]1COC [Example 34, 1-((2R,4S)-4-(4-amino-3-((1-ethyl-1H-indazol-5-yl)ethynyl)-1H-pyrazolo[3,4-d]pyrimidin-1-yl)-2-(methoxymethyl)pyrrolidin-1-yl)prop-2-en-1-one]	≥ 7.00
C=CC(=O)N1C[C@@H](n2cc(C#Cc3cc4nc(C)n(C(F)F)c4cc3Cl)c3c(N)ncnc32)C[C@@H]1COC [Example 131, 1-[(2R,4S)-4-(4-Amino-5-{2-[6-chloro-1-(difluoromethyl)-2-methyl-1,3-benzodiazol-5-yl]ethynyl}pyrrolo[2,3-d]pyrimidin-7-yl)-2-(methoxymethyl)pyrrolidin-1-yl]prop-2-en-1-one]	≥ 7.00
C=CC(=O)N1C[C@@H](n2nc(C#Cc3cc4ncn(CC)c4cc3F)c3c(N)nccc32)C[C@@H]1C(F)F [Example 171, 1-((2R,4S)-4-(4-amino-3-((1-ethyl-6-fluoro-1H-benzo[d]imidazol-5-yl)ethynyl)-1H-pyrazolo[4,3-c]pyridin-1-yl)-2-(difluoromethyl)pyrrolidin-1-yl)prop-2-en-1-one]	≥ 7.00
C=CC(=O)N1CC[C@H](n2nc(C#Cc3cc4ncn(C)c4cc3F)c3c(N)ncnc32)C1 [Example 140, 1-[(3S)-3-{4-Amino-3-[2-(6-fluoro-1-methyl-1,3-benzodiazol-5-yl)ethynyl]pyrazolo[3,4-d]pyrimidin-1-yl}pyrrolidin-1-yl]prop-2-en-1-one]	≥ 7.00
C=CC(=O)N1C[C@@H](n2nc(C#Cc3c(Cl)cc4c(ncn4CC)c3F)c3c(N)nccc32)C[C@@H]1COC [Example 117, 1-[(2R,4S)-4-[4-Amino-3-[2-(6-chloro-1-ethyl-4-fluoro-1,3-benzodiazol-5-yl)ethynyl]pyrazolo[4,3-c]pyridin-1-yl]-2-(methoxymethyl)pyrrolidin-1-yl]prop-2-en-1-one]	≥ 7.00
C=CC(=O)N1C[C@@H](n2nc(C#Cc3cc4ncn(C)c4cc3F)c3c(N)nccc32)C[C@@H]1C [Example 165, 1-((2S,4S)-4-(4-amino-3-((6-fluoro-1-methyl-1H-benzo[d]imidazol-5-yl)ethynyl)-1H-pyrazolo[4,3-c]pyridin-1-yl)-2-methylpyrrolidin-1-yl)prop-2-en-1-one]	≥ 7.00
C=CC(=O)N1C[C@@H](c2nc(C#Cc3cc4ncn(C5CC5)c4cc3F)c3c(N)ncnn23)C[C@@H]1COC [Example 199, 1-[(2R,4S)-4-{4-Amino-5-[2-(1-cyclopropyl-6-fluoro-1,3-benzodiazol-5-yl)ethynyl]imidazo[4,3-f][1,2,4]triazin-7-yl}-2-(methoxymethyl)pyrrolidin-1-yl]prop-2-en-1-one]	≥ 7.00
C=CC(=O)N1C[C@@H](n2nc(C#Cc3ccc4nn(CC)cc4c3)c3c(N)ncnc32)C[C@@H]1COC [Example 42, 1-[(2R,4S)-4-[4-amino-3-[2-(2-ethylindazol-5-yl)ethynyl]pyrazolo[3,4-d]pyrimidin-1-yl]-2-(methoxymethyl)pyrrolidin-1-yl]prop-2-en-1-one]	6.00 to 7.00
C=CC(=O)N1C[C@@H](n2nc(C#Cc3cc4ncn(C)c4cc3Cl)c3c(N)nccc32)C[C@@H]1COC [Example 98, 1-[(2R,4S)-4-[4-Amino-3-[2-(6-chloro-1-methyl-1,3-benzodiazol-5-yl)ethynyl]pyrazolo[4,3-c]pyridin-1-yl]-2-(methoxymethyl)pyrrolidin-1-yl]prop-2-en-1-one]	≥ 7.00
C=CC(=O)N1C[C@@H](n2nc(C#Cc3cc4ncn(C)c4c(F)c3Cl)c3c(N)ncnc32)C[C@@H]1COC [Example 121, 1-[(2R,4S)-4-[4-Amino-3-[2-(6-chloro-7-fluoro-1-methyl-1,3-benzodiazol-5-yl)ethynyl]pyrazolo[3,4-d]pyrimidin-1-yl]-2-(methoxymethyl)pyrrolidin-1-yl]prop-2-en-1-one]	≥ 7.00
C=CC(=O)N1CC[C@H](n2nc(C#Cc3ccc4c(c3)ncn4C3CC3)c3c(N)ncnc32)C1 [Example 193, 1-[(3S)-3-{4-Amino-3-[2-(1-cyclopropyl-1,3-benzodiazol-5-yl)ethynyl]pyrazolo[3,4-d]pyrimidin-1-yl}pyrrolidin-1-yl]prop-2-en-1-one]	≥ 7.00
C=CC(=O)N1C[C@@H](n2nc(C#Cc3c(F)cc4c(ncn4CC)c3F)c3c(N)ncnc32)C[C@@H]1COC(F)(F)F [Example 70, 1-((2R,4S)-4-(4-Amino-3-((1-ethyl-4,6-difluoro-1H-benzo[d]imidazol-5-yl)ethynyl)-1H-pyrazolo[3,4-d]pyrimidin-1-yl)-2-((trifluoromethoxy)methyl)pyrrolidin-1-yl)prop-2-en-1-one]	≥ 7.00
C=CC(=O)N1CC[C@H](n2nc(C#Cc3cc4ncn(C5CC5)c4c(F)c3F)c3c(N)ncnc32)C1 [Example 194, 1-[(3S)-3-{4-Amino-3-[2-(1-cyclopropyl-6,7-difluoro-1,3-benzodiazol-5-yl)ethynyl]pyrazolo[3,4-d]pyrimidin-1-yl}pyrrolidin-1-yl]prop-2-en-1-one]	≥ 7.00
C=CC(=O)N1C[C@@H](n2nc(C#Cc3cc4ncn(C)c4cc3F)c3c(N)ncnc32)C[C@@H]1C [Example 151, 1-((2S,4S)-4-(4-amino-3-((1-methyl-6-fluoro-1H-benzo[d]imidazol-5-yl)ethynyl)-1H-pyrazolo[3,4-d]pyrimidin-1-yl)-2-methylpyrrolidin-1-yl)prop-2-en-1-one]	≥ 7.00
C=CC(=O)N1C[C@@H](n2nc(C#Cc3cc4ncoc4cc3F)c3c(N)ncnc32)C[C@@H]1COC [Example 119, 1-[(2R,4S)-4-[4-Amino-3-[2-(6-fluoro-1,3-benzoxazol-5-yl)ethynyl]pyrazolo[3,4-d]pyrimidin-1-yl]-2-(methoxymethyl)pyrrolidin-1-yl]prop-2-en-1-one]	≥ 7.00
C=CC(=O)N1CC[C@H](n2nc(C#Cc3cc4nc(C)n(C)c4c(F)c3F)c3c(N)ncnc32)C1 [Example 189, 1-[(3S)-3-{4-Amino-3-[2-(6,7-difluoro-1,2-dimethyl-1,3-benzodiazol-5-yl)ethynyl]pyrazolo[3,4-d]pyrimidin-1-yl}pyrrolidin-1-yl]prop-2-en-1-one]	≥ 7.00
